How the values were obtained:
human P2Y14 receptor [1] = biological target: T1, human P2Y14 receptor (Homo sapiens, UniProt Q15391); assay: Stimulation of PLC; format: cell-based; conditions: for activation of the P2Y14 receptor, % of full activation: at 10 μM; for fold less potent than 1 at the P2Y14 receptor: relative to 1
T1 sequence (Q15391 1-338): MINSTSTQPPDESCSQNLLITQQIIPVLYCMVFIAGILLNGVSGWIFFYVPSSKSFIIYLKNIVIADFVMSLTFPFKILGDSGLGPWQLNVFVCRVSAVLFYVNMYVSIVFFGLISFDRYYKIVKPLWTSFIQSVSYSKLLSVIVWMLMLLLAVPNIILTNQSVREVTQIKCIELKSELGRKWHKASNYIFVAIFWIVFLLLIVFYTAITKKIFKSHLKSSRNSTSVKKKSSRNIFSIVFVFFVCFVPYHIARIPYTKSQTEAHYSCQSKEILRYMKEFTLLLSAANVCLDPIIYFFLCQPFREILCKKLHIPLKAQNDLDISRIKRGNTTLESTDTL

human P2Y14 receptor [2] = biological target: T1, human P2Y14 receptor; conditions: cited from earlier work
human P2Y2 receptor = human P2Y2 receptor (Homo sapiens, UniProt P41231); format: cell-based; conditions: at concentrations up to 10 μM
Chain of human P2Y2 receptor (P41231 whole entry): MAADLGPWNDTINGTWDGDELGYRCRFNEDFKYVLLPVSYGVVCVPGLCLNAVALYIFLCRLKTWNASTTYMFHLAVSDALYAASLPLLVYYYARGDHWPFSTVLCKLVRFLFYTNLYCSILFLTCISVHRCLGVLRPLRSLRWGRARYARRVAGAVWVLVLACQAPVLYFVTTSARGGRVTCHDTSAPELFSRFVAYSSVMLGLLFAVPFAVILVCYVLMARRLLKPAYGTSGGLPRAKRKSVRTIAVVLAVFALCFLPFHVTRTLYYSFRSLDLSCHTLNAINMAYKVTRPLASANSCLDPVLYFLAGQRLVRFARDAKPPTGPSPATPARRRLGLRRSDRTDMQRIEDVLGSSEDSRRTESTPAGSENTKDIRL

rat P2Y14 receptor = conditions: cited from earlier work

**Q.** Which “agonist activity at the P2Y14 receptor” value (human P2Y14 receptor [1]) does the source give for `CO/N=c1/ccn([C@@H]2O[C@H](COP(=O)(O)OP(=O)(O)O[C@H]3O[C@H](CO)[C@@H](O)[C@H](O)[C@H]3O)[C@@H](O)[C@H]2O)c(=O)[nH]1` [Compound 4, Diphosphoric Acid 1″-α-D-[1″]Glucopyranosyl Ester 2-((N^4-methoxy)cytidin-5′-yl)ester] here?
**A.** Its value is “only weakly active”.

**Q.** For `O=c1ccn([C@@H]2O[C@H](COP(=O)(O)OP(=O)(O)O[C@H]3O[C@H](CO)[C@@H](O)[C@H](O)[C@H]3O)[C@@H](O)[C@H]2O)c(=S)[nH]1` [Compound 2, 2-thio-UDP-[1″]glucose], which “fold increase in P2Y14 potency” value (human P2Y14 receptor [2]; relative to 1) is on record?
**A.** The value was 7 fold.

**Q.** What about the “activity at the human P2Y2 receptor (activation of PLC)” value (from here on “activity at the human P2Y2 receptor”) (human P2Y2 receptor) of the same compound?
**A.** Its value is “inactive”.

**Q.** Which results are given for `O=c1ccn([C@@H]2O[C@H](COP(=O)(O)OP(=O)(O)O)[C@@H](O)[C@H]2O)c(=O)[nH]1` [UDP, Uridine 5′-diphosphate]?
**A.** type of activity at the human P2Y14 receptor (human P2Y14 receptor [2]): partial agonist/competitive antagonist; type of activity at the rat P2Y14 receptor (rat P2Y14 receptor): potent agonist

**Q.** Which “activity at the human P2Y2 receptor” value (human P2Y2 receptor) does the source give for `O=c1ccn([C@@H]2O[C@H](COP(=O)(O)OP(=O)(O)O[C@H]3O[C@H](CO)[C@@H](O)[C@H](F)[C@H]3O)[C@@H](O)[C@H]2O)c(=O)[nH]1` [Compound 12, UDP-3″-F-[1″]3″-deoxy glucose] here?
**A.** Its value is “inactive”.

**Q.** For `O=c1ccn([C@@H]2C[C@H](COP(=O)(O)OP(=O)(O)O[C@H]3O[C@H](CO)[C@@H](O)[C@H](O)[C@H]3O)[C@@H](O)[C@H]2O)c(=O)[nH]1` [Compound 29, Diphosphoric Acid 1″-α-D-[1″]Glucopyranosyl Ester 2-(carbocyclic uridin-5′-yl)ester], which “activation of the P2Y14 receptor, % of full activation” value (human P2Y14 receptor [1]) is on record?
**A.** The value was < 20%.

**Q.** For `O=c1ccn([C@@H]2O[C@H](COP(=O)(O)OP(=O)(O)O[C@H]3O[C@H](CO)[C@@H](O)[C@H](O)[C@H]3F)[C@@H](O)[C@H]2O)c(=O)[nH]1` [Compound 11, UDP-2″-F-[1″]2″-deoxy glucose], which “fold less potent than 1 at the P2Y14 receptor” value (human P2Y14 receptor [1]) is on record?
**A.** Its value is 9.6 fold.

**Q.** What does the source list for `CC(=O)NCCNC(=O)[C@H]1O[C@H](OP(=O)(O)OP(=O)(O)OC[C@H]2O[C@@H](n3ccc(=O)[nH]c3=O)[C@H](O)[C@@H]2O)[C@H](O)[C@@H](O)[C@@H]1O` [Compound 17a, Diphosphoric Acid 1″-α-D-[1″](Glucuronic acid-N-(2-acetylethyl amide))pyranosyl Ester 2-(uridin-5′-yl)ester]?
**A.** efficacy at the P2Y14 receptor (human P2Y14 receptor [1]): fully activate; activity at the human P2Y2 receptor (activation of PLC) (human P2Y2 receptor): inactive

**Q.** Which “fold less potent than 1 at the P2Y14 receptor” value (human P2Y14 receptor [1]) does the source give for `O=c1ccn([C@@H]2O[C@H](COP(=O)(O)OP(=O)(O)O[C@H]3O[C@H](CO)[C@@H](F)[C@H](O)[C@H]3O)[C@@H](O)[C@H]2O)c(=O)[nH]1` [Compound 13, UDP-4″-F-[1″]4″-deoxy glucose] here?
**A.** Its value is 2 fold.

**Q.** Which “activation of the P2Y14 receptor, % of full activation” value (human P2Y14 receptor [1]) does the source give for `O=c1ccn([C@@H]2O[C@H](COP(=O)(O)OP(=O)(O)OC[C@H]3O[C@H](O)C[C@@H](O)[C@@H]3O)[C@@H](O)[C@H]2O)c(=O)[nH]1` [Compound 20, Up2-[6″]2″-deoxyglucose] here?
**A.** The value was “less than 50%”.

**Q.** What does the source list for `O=c1ccn([C@@]23C[C@H]2[C@H](COP(=O)(O)OP(=O)(O)O[C@H]2O[C@H](CO)[C@@H](O)[C@H](O)[C@H]2O)[C@@H](O)[C@H]3O)c(=O)[nH]1` [Compound 27, Diphosphoric Acid 1″-α-D-[1″]Glucopyranosyl Ester 2-((S)-Methanocarba-uridin-5′-yl)ester]?
**A.** EC50 (human P2Y14 receptor [1]): > 10 µM; agonist activity at the P2Y14 receptor (human P2Y14 receptor [1]): abolished agonist activity

**Q.** For `O=c1ccn(C2CC(O)C(COP(=O)(O)OP(=O)(O)OC3OC(CO)C(O)C(O)C3O)O2)c(=O)[nH]1` (stereo not shown) [2′-deoxy-UDPG], which “activity at the P2Y14 receptor” value (human P2Y14 receptor [2]) is on record?
**A.** The value was “inactive”.

**Q.** Which “activity at the human P2Y2 receptor” value (human P2Y2 receptor) does the source give for `O=c1ccn([C@@H]2O[C@H](COP(=O)(O)OP(=O)(O)OC[C@H]3O[C@](O)(CO)[C@@H](O)[C@@H]3O)[C@@H](O)[C@H]2O)c(=O)[nH]1` [Compound 24, Up2-[6″]fructose] here?
**A.** The value was “inactive”.

**Q.** With `O=c1ccn([C@@H]2O[C@H](COP(=O)(O)OP(=O)(O)O[C@H]3O[C@H](CF)[C@@H](O)[C@H](O)[C@H]3O)[C@@H](O)[C@H]2O)c(=O)[nH]1` [Compound 14, UDP-6″-F-[1″]6″-deoxy glucose] as the compound, how does the “fold less potent than 1 at the P2Y14 receptor” value (human P2Y14 receptor [1]) read?
**A.** The value was 3.5 fold.

**Q.** Which “fold decrease in P2Y14 potency on inversion of the 2″-hydroxyl configuration” value (human P2Y14 receptor [1]; relative to 21) does the source give for `O=c1ccn([C@@H]2O[C@H](COP(=O)(O)OP(=O)(O)OC[C@H]3O[C@H](O)[C@@H](O)[C@@H]3O)[C@@H](O)[C@H]2O)c(=O)[nH]1` [Compound 22, Up2-[5″]arabinose] here?
**A.** Its value is 2 fold.

**Q.** For `CC(C)(C)OC(=O)NCCNC(=O)[C@H]1O[C@H](OP(=O)(O)OP(=O)(O)OC[C@H]2O[C@@H](n3ccc(=O)[nH]c3=O)[C@H](O)[C@@H]2O)[C@H](O)[C@@H](O)[C@@H]1O` [Compound 17b, Diphosphoric Acid 1″-α-D-[1″] (Glucuronic acid-N-(2-t-butyloxycarbonylethyl amide))pyranosyl Ester 2-(uridin-5′-yl)ester], which “efficacy at the P2Y14 receptor” value (human P2Y14 receptor [1]) is on record?
**A.** The value was “fully activate”.

**Q.** Which “efficacy at the P2Y14 receptor” value (human P2Y14 receptor [1]) does the source give for `NCCNC(=O)[C@H]1O[C@H](OP(=O)(O)OP(=O)(O)OC[C@H]2O[C@@H](n3ccc(=O)[nH]c3=O)[C@H](O)[C@@H]2O)[C@H](O)[C@@H](O)[C@@H]1O` [Compound 16, Diphosphoric Acid 1″-α-D-[1″](Glucuronic acid-N-(2-amino-ethyl amide))pyranosyl Ester 2-(uridin-5′-yl)ester] here?
**A.** Its value is “fully activated the receptor”.

**Q.** For `O=c1ccn([C@H]2[C@H](O)[C@H](O)[C@@]3(COP(=O)(O)OP(=O)(O)O[C@H]4O[C@H](CO)[C@@H](O)[C@H](O)[C@H]4O)C[C@H]23)c(=O)[nH]1` [Compound 28, Diphosphoric Acid 1″-α-D-[1″]Glucopyranosyl Ester 2-((N)-Methanocarba-uridin-5′-yl)ester], which EC50 (human P2Y14 receptor [1]) is on record?
**A.** The EC50 was > 10 µM.

**Q.** What about the “agonist activity at the P2Y14 receptor” value (human P2Y14 receptor [1]) of the same compound?
**A.** The value was “abolished agonist activity”.

Reference: article PMC2760346 (Bioorganic & medicinal chemistry, 2009)
